Test system: HeLa
Experiment: Cytotoxicity against human HeLa cells assessed as cell death at 1 uM after 24 hrs MTT assay relative to control
Type: cell-based

Q: With `O=C(/C=C/c1ccccc1)N[C@@H](c1ccccc1)[C@@H](OC(=O)c1ccccc1)C(=O)NC1CCCCC1` as the compound, how does the Activity read?
A: Its Activity is < 10%.

From ChEMBL document CHEMBL4024730 (Bioorg Med Chem Lett, 2017)
